This is an account of results in article PMC13126677 (Journal of Medicinal Chemistry, 2026).

The test system of series [1] is procoagulant activity of B. jararaca venom. Particulars: read-out: Coagulation assay EC50 B. jararaca; 100 ng B. jararaca venom, citrated bovine plasma; mean of n ≥ 3, range in brackets.
Description: (§1) This assay consists of preincubating venom (or venom vehicle control) at a species-specific dose with the compound of interest (or compound vehicle control), then adding citrated bovine plasma to the wells and activating the clotting cascade with calcium chloride. […] Compounds of interest were stamped onto 384-well plates at a volume of 0.5 μL and a concentration of 10 mM in 100% DMSO. Positive and negative control wells were stamped with 0.5 μL of 100% DMSO. To the test wells and the venom-only positive control wells, 10 μL of venom diluted to 1 μg/mL (E. romani) or 10 μg/mL (B. jararaca) in PBS was added, giving a final well amount of 10 ng (E. romani) or 100 ng (B. jararaca) per well. In the no venom negative control wells, 10 μL of PBS was added. The plates were then sealed, span briefly in a Platefuge and incubated at 37 °C for 25 min to allow venom-inhibitor interaction. While the plates were incubating, sufficient citrated bovine plasma (S0260, BioWest) to allow 20 μL/well was centrifuged at 3120 RCF for 5 min to remove any residual cellular debris and the supernatant was collected. The 384-well plates were removed from the incubator for 5 min to allow acclimation to room temperature, then 20 μL/well of 20 mM CaCl2 was added and immediately followed by the addition of 20 μL/well of centrifuged citrated bovine plasma, both via a Multidrop Combi reagent dispenser (5840330, Thermo Fisher Scientific). The plates were then read kinetically using an absorbance protocol on a CLARIOStar microplate reader at 595 nm for 60 min. […] Dose response plates were conducted identically and the % inhibition values at each dose were used to draw EC50 curves to estimate the EC50 value of each compound tested. All coagulation experiments were repeated independently a minimum of three times.
Series [2] concerns E. romani P–I, P–II and P–III SVMPs. Particulars: gel; for protection against degradation of fibrinogen: P–I, P–II, P–III SVMPs, drug 10 μM (P–I, P–II), 400 nM (P–III).
Description: (§2) Evaluation of SVMP toxin activity of human prothrombin and fibrinogen and inhibition by test compounds was performed by SDS-PAGE degradation gel electrophoresis using venom-purified toxins. P–I, P–II and P–III SVMPs were isolated using an adaptation of the method of Howes et al. Whole E. romani venom (15 mg) was initially separated using size exclusion chromatography (SEC) on a 120 mL column of Superdex 75 (Cytiva). The P–II SVMP (22 kDa) was pure and ready to use at this stage. P–I and P–III SVMP containing peaks were separately applied to a 1 mL high resolution hydrophobic interaction chromatography (HIC) column (SOURCE 15PHE, Cytiva). […] The P–I eluted as two peaks of proteins with identical molecular weight (21 kDa) which were combined back together. The P–III-containing fraction from SEC eluted from HIC as multiple peaks of P–III SVMP isoforms, well separated from the earlier eluting L-amino acid oxidase and high molecular weight C-type lectin-like proteins. The proteins in the PIII-containing peaks were pooled back together.
Degradation of human fibrinogen was measured in a similar manner. Human fibrinogen (Merck) was added at 5 μg/reaction and incubated with the different SVMP isoforms in the presence or absence of drugs. Drug concentrations used were 10 μM for P–I and P–II SVMP and 400 nM for P–III SVMP. The reactions consisted of 200 ng SVMP isoform and the appropriate concentration of drug, which were then incubated for 30 min at 37 °C in a water bath. Five micrograms of fibrinogen were then added and the samples incubated for another hour at 37 °C, before separation by SDS-PAGE as described above.
In series [3] the test system is E. romani P–I and P–III SVMPs. Particulars: drug 2 μM, gel.
Description: as §2
Prothrombin degradation was measured by incubating 2 μg of human prothrombin (Hematologic Technologies INC) in the presence or absence of drug and the P–I, P–II, and P–III SVMPs. […] Briefly, drug or DMSO and 200 ng of purified SVMP isoform were incubated for 30 min at 37 °C in a water bath, after which 2 μg of human prothrombin were added and the samples incubated for another hour at 37 °C. Drug concentrations used were 2 μM for P–I and P–III SVMPs. Samples were then processed for loading onto a 4–20% SDS-PAGE gel (Biorad) and were run under reducing conditions for 45 min at 180 V. The gels were stained with Coomassie Brilliant Blue R250 and degradation profiles were visualized and images captured using a GelDoc (Biorad).
Series [4] relates to procoagulant venom activity (E. romani and B. jararaca). Particulars: in words; coagulation assay.
Description: as §1
The subject of series [5] is procoagulant activity of E. romani venom. The conditions noted are these: read-out: Coagulation assay EC50 E. romani; 10 ng E. romani venom, citrated bovine plasma; mean of n ≥ 3, range in brackets.
Description: as §1
Series [6] is described as follows: in vitro. The conditions noted are these: rat, hepatocytes.
Description: (§3) The DMPK properties data described in the manuscript were measured via a high-throughput platform by AstraZeneca (United Kingdom).
For series [7], the system named is SVMP activity of Bothrops jararaca venom. Particulars: read-out: Inhibition of SVMP enzymatic activity EC50 BJA; B. jararaca venom; mean of n ≥ 3, range in brackets.
Description: (§4) Throughout our medicinal chemistry campaign, compounds were evaluated for their ability to inhibit enzymatic SVMP toxin activity in vitro using a previously described fluorescent-based substrate cleavage assay against five medically important viper venoms, namely Echis romani (Roman’s carpet viper, West Africa), Crotalus atrox (Western diamondback rattlesnake, North America), Calloselasma rhodostoma (Malayan pit viper, South East Asia), Bothrops jararaca (jararaca, South America) and Bitis arietans (puff adder, Africa).
(§5) Compounds of interest were stamped onto 384-well plates at a volume of 0.91 μL at a concentration of 1 mM in 100% DMSO (D2650, Sigma-Aldrich). Positive and negative control wells were stamped with 0.91 μL of 100% DMSO. To the test wells and the venom-only positive control wells, 15 μL of venom diluted to 0.066 μg/mL in PBS was added, giving a final amount of 1 μg/well. In the no venom negative control wells, 15 μL of PBS was added. The plates were then sealed, span briefly in a Platefuge (C2000, Benchmark Scientific) and incubated at 37 °C for 25 min to allow venom-inhibitor interaction. […] Dose response plates were conducted identically and the % inhibition values at each dose were used to draw EC50 curves to estimate the EC50 value of each compound tested. All SVMP experiments were repeated independently a minimum of three times.
Series [8] in a line: in vitro. Particulars: human, microsomes.
Description: as §3
The subject of series [9] is SVMP activity of Calloselasma rhodostoma venom. Particulars: read-out: Inhibition of SVMP enzymatic activity EC50 CRH; C. rhodostoma venom; mean of n ≥ 3, range in brackets.
Description: as §4, §5
Series [10] concerns SVMP activity of Bitis arietans venom. The conditions noted are these: read-out: Inhibition of SVMP enzymatic activity EC50 BAR; B. arietans venom; mean of n ≥ 3, range in brackets.
Description: as §4, §5
Series [11] has as its system E. romani venom. The conditions noted are these: venom 10 μg/egg, in words.
Description: Fertile hens eggs were supplied on day 1 post fertilization from UK supplier MedEggs Ltd. Eggs were immediately placed horizontally to incubate at 37 °C until day 5 of development. Candling was conducted to mark the position of the embryo to guide windowing. Any infertile eggs were removed at this stage. To access the embryos, all fertile eggs were then windowed under laminar flow. In brief, 6–8 mL of albumin was removed using a 23G needle. The area marking the position of the embryo was then covered with medical tape, and a dish of shell removed using sharp dissection scissors. The exposed embryo was then covered using parafilm and the egg returned to the incubator overnight. Surviving embryos were then randomly allocated into groups of n = 5. […] Treatments were given in a total volume of 10 μL, administered directly onto (i.e., topically) the vitelline vein. Embryos were returned to the incubator immediately following dosing, and then observed at 1, 2, 4, and 6 h. Survival was monitored via the observation of a heartbeat. Venom pathology was captured using a Motic SMZ 171-TLED microscope system. In brief, at each observation time point (1, 2, 4, and 6 h post envenoming) images were captured using a Moticam X5 Wi-Fi camera. To track changes across the experimental time course, the imaging position was kept consistent at each time point for individual embryos.
Series [12] can be described thus: physchem. Particulars: aqueous medium at pH 7.4, pH 7.4, aqueous buffer.
Description: as §3
Series [13] deals with E. romani venom.
Description: Room conditions were set at 20–24 °C and 45–65% humidity, 12/12 h light cycles. Mice were allowed ad libitum access to Picolab 5R53 food (Lab Diet, USA) and reverse osmosis water and housed with nesting material and environmental enrichment materials.
Mice weighed 22–28 g at the start of study. Five milligram or kilogram morphine was administered subcutaneously as an analgesic 15 min prior to venom administration. […] No criteria for including or excluding animals was applied, and all data points were included in analyses. Animals were monitored for humane end points (loss of righting reflex, seizure, external hemorrhage) for 8 h to encompass the drug exposure time frame, and any animals showing such signs were immediately euthanized by rising concentrations of carbon dioxide. All observations were performed by mixed gender experimenters who were blinded to the drug group allocation. Time of death, number of deaths and number of survivors were recorded, where deaths and times of death represent implementation of humane end point-dictated euthanasia. Kaplan–Meier survival plots were generated using GraphPad Prism 9.0 (GraphPad Software, San Diego, USA).
In series [14] the test system is mouse fibrinogen and prothrombin. The conditions noted are these: in words.
Description: Mouse plasma samples were diluted 1:50 (antifibrinogen blots) and 1:30 (antiprothrombin blots) and 5 μL was run on 4–20% SDS-PAGE gels (BioRad) at 180 V for 1 h. The separated proteins were then transferred onto nitrocellulose membranes using semidry transfer on a Trans-Blot Turbo (BioRad) using the following conditions: 1.3 A, 25 V, 7 min. Blots were then stained for 5 min with Revert 700 Total Protein Stain (LICORbio) following the manufacturer’s protocol and imaged on the 700 nm channel on an Odyssey Fc Imaging System to detect protein abundance and ensure equal loading. Membranes were then destained in 0.1 M NaOH, 30% methanol for no longer than 10 min, then blocked in 5% milk TBST for 1 h. The primary antibodies: antifibrinogen (ab34269, rabbit polyclonal, Abcam) and antiprothrombin (PA5-77976, rabbit polyclonal, Thermo Fisher) were diluted 1:1,500 and 1:1,000, respectively, in 5% milk TBST. The membranes were incubated with the appropriate primary antibody for 1.5 h at room temperature, followed by three 5 min washes in TBST. Blots were then incubated for 1 h at room temperature with an IRDye 800CW donkey anti-rabbit IgG secondary antibody (1:15000, LICORbio), followed by three 5 min washes in TBS. The blots were imaged on an Odyssey Fc Imaging System at both 700 and 800 nm.
Series [15] in a line: physchem. Particulars: organic solvent / aqueous solvent at pH 7.4, pH 7.4.
Description: as §3
For series [16], the system named is SVMP activity of Crotalus atrox venom. The conditions noted are these: read-out: Inhibition of SVMP enzymatic activity EC50 CAT; C. atrox venom; mean of n ≥ 3, range in brackets.
Description: as §4, §5
The conditions of series [17]: mouse.
Description: (§6) The in vivo PK study was performed by ChemPartner (Shanghai, China). […] Mice had access to food and water throughout the pre- and postdose sampling period. […] Approximately 110 μL whole blood/time point (sampling at 0.083, 0.25, 0.5, 1, 2, 4, 8, and 24 h) was collected via serial bleeding in K2EDTA tube via facial vein. The blood sample was kept on ice and centrifuged (2,000 × g, 4 °C, 5 min) within 15 min postsampling. The plasma drug concentrations were determined by LC-MS/MS (ESI, Triple Quad 5500 System) on positive ion mode and using dexamethasone as internal standard. Liquid chromatography (LC) was performed using a 2.5 μm Xbridge BEH-C18 column (2.1 mm × 50 mm) at 60 °C with a rate of 0.6 mL/min. The following mobile phases were used; A: Water (+0.025% Formic acid and 1.0 mM ammonium acetate), B: Methanol (+0.025% Formic acid and 1.0 mM ammonium acetate).
In series [18] the test system is SVMP activity of five viper venoms (E. romani, C. atrox, C. rhodostoma, B. jararaca, B. arietans). The conditions noted are these: read-out: broad-spectrum inhibition of SVMP activity EC50s; range over the five venoms.
Description: as §4, §5
The next series is described as follows: in vivo. Particulars: male, CD1, mouse, plasma, po, 20 mg/kg.
Series [19] deals with E. romani venom in human whole blood. Particulars: venom 60 ng plus drug 5 μM.
Description: We measured the coagulation profile of whole human blood using thromboelastography, and compared with venom stimulated, and venom and drug stimulated, clotting profiles. […] Blood samples were collected in ACD-A blood tubes. Using a ROTEM delta (Werfen) a final volume of 300 μL blood per reaction was pipetted into prewarmed cups (37 °C), with four channels per run. Whole blood was warmed for 5 min at 37 °C, during which time 12 μL of E. romani venom (5 ng/nL concentration, 60 ng dose), 15 μL of DMSO vehicle or test compounds (5 μM final concentration, 0.2% DMSO), and 20 μL of Startem reagent (CaCl2, Werfen) was prepared. The maximum incubation time of venom and inhibitors was 2 min, before 253 μL of whole blood were added and mixed before reading on the ROTEM delta. The commonly used parameters of clotting time and maximum clot firmness (MCF) were reported, from a minimum of three independent measurements per experimental group.
The test system of series [20] is SVMP activity of Echis romani venom. Particulars: read-out: Inhibition of SVMP enzymatic activity EC50 ERO, E. romani venom, mean of n ≥ 3, range in brackets.
Description: as §4, §5
In series [21] the test system is thrombin-antithrombin (TAT) complexes.
Description: Blood samples were collected from mice via cardiac puncture immediately following euthanasia. Samples were centrifuged at 1400 × g for 10 min at 4 °C, and the plasma supernatant stored at −80 °C until use. Plasma TAT levels were determined using a sandwich ELISA provided as a commercial kit (Abcam, ab137994). Mouse plasma samples were diluted 1:150 using Diluent M and were run in duplicate alongside a standard curve. Each well received 50 μL diluted plasma and was incubated for 2 h at room temperature to allow for the reaction with the TAT complexes antibodies coated onto the plate. After five washes, 50 μL of biotinylated mouse TAT complexes antibodies were added to the plate and the reaction allowed to proceed for another 2 h. Following another five washes, 50 μL of a streptavidin-peroxidase conjugate were added to the plate and incubated for another 30 min. Next, 50 μL of a chromogenic substrate (3,3′,5,5′-tetramethylbenzidine) was added to the plate and the peroxidase-dependent reaction allowed to proceed until a clear blue color formed in the well. At this point 50 μL of stop solution was added and the absorbance read immediately at 450 and 570 nm. The 570 nm absorbance readings were subtracted from the 450 nm ones, and the levels of TAT complexes (ng/mL) extrapolated based on the standard curve.
The test system of series [22] is E. romani venom. Particulars: 30 mg/kg single oral dosing; ref not given; cited from earlier work.
Series [23] concerns SVMP activity of Echis romani venom. Particulars: read-out: ERO EC50; E. romani venom; ref not given; cited from earlier work.

≈ marks a conversion by molar mass, not a printed value. Like-named read-outs stand apart in the source and are kept apart here.

Description for human plasma protein: as §3
Description for in vivo: as §6

Take `CC1(C)SCCN(S(=O)(=O)c2ccc(Oc3ccncc3)cc2)[C@H]1C(=O)NO` [Prinomastat, prinomastat, reference compound]: the EC50 in series [1] came to 972 nM; in series [5] it was 558 nM. In series [2], the “protection against degradation of fibrinogen” value (shortened to “protection against degradation”) is recorded as “protected against the degradation of fibrinogen”. The “protection against prothrombin degradation” value in [3] is “almost full protection”. In addition, the “inhibition of procoagulant venom activity” value (“inhibition” below) in [4] was “demonstrated inhibition of procoagulant activity”.
Molecule `COc1ccc(S(=O)(=O)N2CCN(S(=O)(=O)C3CC3)C[C@@H]2C(=O)NO)cc1` [compound 23, (R)-4-(Cyclopropylsulfonyl)-N-hydroxy-1-((4-methoxyphenyl)sulfonyl)piperazine-2-carboxamide] gave a hepatocyte CLint in “in vitro [6]” of 13.3 µL/min/1e6 cells. The EC50 came to 13.4 nM in series [1]; 10.9 nM in series [7]; 38.6 nM in series [9]; 3.9 nM in series [10]; 22.9 nM in series [16]; 135 nM in series [5]. Moreover, the EC50 in [18] was 4.7 to 38.6 nM; in series [20] (listed as 23 (DC-174)), 4.7 nM. In “in vitro [8]”, this molecule came in with an intrinsic metabolic clearance (microsomal CLint) of 8.3 µL/min/mg. Also, the “protection against degradation” value in [2] is recorded as “protected against the degradation of fibrinogen”. In addition, the embryo survival result in the series on E. romani venom [11] (drug 1 μg/egg topical, 6 h) was “complete survival”. For the same molecule, in the series “physchem [12]”, the solubility was > 1000 µM. Moreover, the “survival times vs venom-only” value in the series on E. romani venom [13] (90 μg venom i.p., single 20 mg/kg oral dose, p = 0.01, in words) is given as “significantly prolonged survival times”. Besides, the mean survival time in the series on E. romani venom [13] (two dose oral regimen 20 mg/kg, 8 h experiment) was found to be 420 min. Moreover, the “time at which the mouse succumbed” value with E. romani venom [13] (two dose oral regimen 20 mg/kg, one of five mice) was determined as 180 min. Besides, the “plasma prothrombin and fibrinogen profiles” value in [14] (single 20 mg/kg oral dose, surviving mice) was “intact prothrombin and fibrinogen profiles”. For the same molecule, the plasma fibrinogen result in series [14] (two 20 mg/kg oral doses) was “fibrinogen was detectable in all multiply dosed animals”. The plasma prothrombin entry in series [14] (two 20 mg/kg oral doses) is “Prothrombin was detectable in three of the four surviving mice”. The same molecule registered a logD in “physchem [15]” of 0.2. For the same molecule, in series [3], the “protection against prothrombin degradation” value is listed as “almost full protection”. Moreover, the “drug level at 4 h as share of C max” value in series [17] (20 mg/kg oral, 4 h after dosing) was 8.4%. In addition, the “time for drug levels to reach their peak” value in [17] (oral dosing) came out at 30 min. In addition, the “Human Protein binding (%free)” value with human plasma protein is 66 %free. For the same molecule, the area under the curve AUC(0-inf) in “in vivo” was 450 ng·h/mL. This molecule yielded an exposure AUC(0-t) in “in vivo” of 444 ng·h/mL. This molecule gave a Cmax in the series “in vivo” of 311 ng/mL. In “in vivo”, this molecule gave an MRT inf of 1.61 h. Moreover, the MRT last in the series “in vivo” is 1.49 h. The Tmax in “in vivo” came out at 0.5 h. The concentration at 4 h in the series “in vivo” worked out at 26.1 ng/mL. The molecule further gave a half-life in the series “in vivo” of 1.41 h. The clotting time in [19] (mean) was found to be 8.6 min. Besides, the “maximum clot firmness (MCF)” value in [19] (mean) was 60.3 [SD 0.6] mm. Further, the “TAT levels, mean” value is 18.6 ng/mL in series [21] (single 20 mg/kg oral dose, all mice); 29.6 ng/mL in series [21] (single 20 mg/kg oral dose, mice that died during the experiment); 2.1 ng/mL in [21] (single 20 mg/kg oral dose, the two survivors); 13.7 ng/mL in series [21] (two 20 mg/kg oral doses).
In the case of `O=S(=O)(O)CC(S)CS` (centres unmarked) [DMPS, 2,3-dimercapto-1-propanesulfonic acid], the “oral dosing murine survival at 8 h” value in the series with E. romani venom [22] is listed as 40%. Besides, the EC50 in series [23] was 1650 nM.
In turn, `COCCOC(=O)N1CCN(S(=O)(=O)c2cc(F)c(Oc3ccc(Cl)cc3)c(F)c2)[C@@H](C(=O)NO)C1` [XL-784, reference compound] registered an intrinsic clearance (hepatocyte CLint) in “in vitro [6]” of 67.3 µL/min/1e6 cells. Besides, the EC50 is > 10000 nM in series [1]; 64.4 nM in series [7]; 93.4 nM in series [9]; 12.9 nM in series [10]; 50.6 nM in [16]; > 10000 nM in series [5]. In [20], the EC50 came to 9.7 nM. In “in vitro [8]”, this molecule came in with an intrinsic metabolic clearance (microsomal CLint) of 100 µL/min/mg. Moreover, the “protection against degradation” value in series [2] is given as “protected against the degradation of fibrinogen”. In addition, in series [2] (P–II SVMP, drug 10 μM), the “protection against fibrinogen degradation by P–II SVMP” value is “inferior against P–II SVMP activity”. In addition, the “venom-induced hemorrhage in embryos” value in the series on E. romani venom [11] (drug 1 μg/egg, 1 h postvenom images) is recorded as “no evidence of hemorrhage”. This molecule also registered a solubility in the series “physchem [12]” of 316 µM (≈ 174 µg/mL). This molecule also displayed a log distribution coefficient (logD) in the series “physchem [15]” of 3.2. Besides, the “protection against prothrombin degradation” value in [3] is listed as “unable to protect against prothrombin degradation”. In addition, the “inhibition” value in series [4] is “inactive”. Besides, the “Human Protein binding (%free)” value in the series on human plasma protein was found to be 0.3 %free. Moreover, the “reduction of venom-induced MCF” value in series [19] worked out at 28.9%. For the same molecule, the “effect on clotting time” value in series [19] (in words) is on record as “no effect on clotting time”.
As to `COCCN1CCN(S(=O)(=O)c2ccc(-c3ccc(Cl)cc3)cc2)[C@@H](C(=O)NO)C1` [compound 29, (R)-1-((4′-Chloro-[1,1′-biphenyl]-4-yl)sulfonyl)-N-hydroxy-4-(2-methoxyethyl)piperazine-2-carboxamide], the intrinsic metabolic clearance (hepatocyte CLint) in the series “in vitro [6]” was determined as 21.1 µL/min/1e6 cells. The EC50 was > 10000 nM in [1]; 38.9 nM in [7]; 220 nM in series [9]; 3.5 nM in [10]; 52.7 nM in series [16]; > 10000 nM in series [5]. In addition, in series [20], the EC50 was found to be 16.1 nM. In the series “in vitro [8]”, this molecule returned an intrinsic clearance (microsomal CLint) of 5.1 µL/min/mg. Moreover, in the series “physchem [12]”, the solubility amounted to 310 µM (≈ 141 µg/mL). The same molecule returned a logD in “physchem [15]” of 2.5. In addition, in series [4], the “inhibition” value was “inactive”. In addition, the “Human Protein binding (%free)” value in the series on human plasma protein came to 5.2 %free.

In general, hepatocyte CLint refers to a measure of how fast metabolising enzymes remove a compound, apart from limits set by blood flow. For orientation: microsomal CLint means the rate of metabolic loss divided by the concentration. The term solubility denotes the concentration that dissolves in the medium under given conditions. As a reminder, the logD is lipophilicity at a set pH, counting ionised and neutral species. A lower logD goes with lower lipophilicity. For orientation: AUC(0-inf) means the area under the concentration-time curve extrapolated to infinity. Read a high AUC(0-inf) as more exposure. For orientation: AUC(0-t) means the area under the concentration-time curve up to a stated or last time point. Lower therefore signals low exposure. As a reminder, the Cmax is the highest concentration seen after dosing. Usually MRT inf stands for the average time that molecules of a dose stay in the body. The MRT last is a mean duration of stay, worked out from the concentration-time curve. Usually Tmax stands for the time at which the peak concentration occurs. The term half-life denotes the time in which the quantity being followed falls by half.
